In patent US20040133936A1, “Enzyme” (priority 2000, published 2004):

Assays:
[1] = molecular target: T1, myrosinase from the cabbage aphid (Brevicoryne brassicae) (Brevicoryne brassicae, UniProt Q95X01); experiment: Kinetic studies of aphid myrosinase (glucose released by glucosinolate hydrolysis); assay type: biochemical; conditions: for Km: substrate, read-out: apparent Km of the aphid myrosinase
T1 construct: The myrosinase from freeze-dried aphids was purified in five steps; from tissue; host or cells: whole freeze-dried Brevicoryne brassicae aphids
T1 sequence (Q95X01 1-464): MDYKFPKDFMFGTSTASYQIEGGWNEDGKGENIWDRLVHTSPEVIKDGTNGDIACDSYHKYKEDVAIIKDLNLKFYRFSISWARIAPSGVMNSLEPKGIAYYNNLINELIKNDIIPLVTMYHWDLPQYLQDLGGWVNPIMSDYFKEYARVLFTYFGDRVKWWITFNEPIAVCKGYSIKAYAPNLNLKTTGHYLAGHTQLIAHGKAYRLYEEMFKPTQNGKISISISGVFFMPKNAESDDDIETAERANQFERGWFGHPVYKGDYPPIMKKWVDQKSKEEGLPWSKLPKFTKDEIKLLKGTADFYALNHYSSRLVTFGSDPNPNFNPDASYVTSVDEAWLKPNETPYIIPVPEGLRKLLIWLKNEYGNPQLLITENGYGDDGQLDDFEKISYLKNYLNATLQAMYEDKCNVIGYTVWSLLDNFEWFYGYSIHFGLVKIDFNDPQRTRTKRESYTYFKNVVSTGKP
Experimental: (§1) An assay based on the determination of glucose released by the hydrolysis of 2-propenyl glucosinolate (sinigrin) by the aphid myrosinase was used routinely to determine enzyme activity during protein purification. GOD-Perid test reagents were purchased from Boehringer Mannheim.
(§2) Enzyme solution and sinigrin (1.08 mM) in 500 μl of sodium citrate buffer (100 mM, pH 5.5) was incubated at 30° C. for 20 min. The reaction was stopped by addition of 40 μl 3M HCl (aq) and GOD-PERID reagent (2.5 ml) added to the reaction mixture and incubated for 15 min at 37° C. The optical density was read at 346 nm and the glucose concentration calculated from a calibration graph.
The present inventors have performed a number of kinetic studies on the myrosinase from the cabbage aphid (Brevicoryne brassicae) which they have characterised. […] Like the cabbage aphid, the turnip aphid (Lipaphis erysimi) myrosinase was not activated by ascorbate in the concentration range 0.1-20 mM. The KM for sinigrin is 0.42 mM for the white mustard (Sinapis alba) myrosinase.

[2] = molecular target: T2, native enzyme (myrosinase) from white mustard seed (Sinapis alba) (Sinapis alba, UniProt P29736); conditions: stable glycosyl-enzyme intermediate at the active site; cited from earlier work
T2 construct: the native enzyme from white mustard seed (Sinapis alba) has been crystallised; host or cells: white mustard seed

[3] = molecular target: white mustard (Sinapis alba) myrosinase (Sinapis alba, UniProt P29736); experiment: KM of white mustard myrosinase; assay type: biochemical; conditions: substrate
[4] = molecular target: T3, myrosinase from the cabbage aphid B. brassicae (Brevicoryne brassicae, UniProt Q95X01); conditions: substrates 2-propenyl and 2-hydroxy-3-butenyl glucosinolate; cited from earlier work
T3 sequence (Q95X01 1-464): T1 sequence (Q95X01 1-464)

[5] = test system: myrosinase from the mustard plant Brassica nigra; conditions: substrates 2-propenyl and 2-hydroxy-3-butenyl glucosinolate; cited from earlier work
plant myrosinase = conditions: cited from earlier work
[6] = test system: turnip aphid (Lipaphis erysimi) myrosinase; experiment: Ascorbate activation of turnip aphid myrosinase; assay type: biochemical; conditions: concentration range 0.1-20 mM
[7] = Myrosinase micro assay (glucose released by hydrolysis of sinigrin); assay type: biochemical; conditions: sinigrin 1.08 mM, pH 5.5, 30° C.
Experimental: as §1
as §2, with “ml) was” for “ml)”

Chain of white mustard (Sinapis alba) myrosinase (P29736 whole entry): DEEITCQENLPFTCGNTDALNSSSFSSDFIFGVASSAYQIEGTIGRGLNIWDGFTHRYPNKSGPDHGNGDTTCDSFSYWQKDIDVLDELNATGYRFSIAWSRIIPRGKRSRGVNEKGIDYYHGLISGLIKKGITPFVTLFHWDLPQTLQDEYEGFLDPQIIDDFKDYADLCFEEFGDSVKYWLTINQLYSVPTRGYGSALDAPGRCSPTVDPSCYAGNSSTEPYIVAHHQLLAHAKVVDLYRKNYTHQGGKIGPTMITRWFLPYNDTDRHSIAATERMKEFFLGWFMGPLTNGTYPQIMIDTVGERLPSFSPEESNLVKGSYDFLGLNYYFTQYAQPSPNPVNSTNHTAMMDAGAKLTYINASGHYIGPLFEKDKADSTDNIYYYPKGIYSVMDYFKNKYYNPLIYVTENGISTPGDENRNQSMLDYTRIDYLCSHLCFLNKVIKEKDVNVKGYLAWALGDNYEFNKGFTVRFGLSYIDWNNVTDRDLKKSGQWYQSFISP
T2 sequence (P29736 whole entry): as above

Question: For `O=S(=O)(O)ON=C(Cc1ccccc1)S[C@@H]1O[C@H](CO)[C@@H](O)[C@H](O)[C@H]1F` [2-deoxy-2-fluoroglucotropaeolin], which Ki [1] is on record?
Answer: Its Ki is “extremely low”.

Question: And the type of inhibition [1]?
Answer: The type of inhibition was “competitively inhibited”.

Question: And the “inhibition of the enzyme” value [2]?
Answer: The value was “potent inhibitor”.

Question: With `C=CC/C(=N/OS(=O)(=O)O)S[C@@H]1O[C@H](CO)[C@@H](O)[C@H](O)[C@H]1O` [2-propenylglucosinolate] as the molecule, how does the Km [1] read?
Answer: The Km was 613 µM.

Question: What about the Km [3] of the same molecule?
Answer: Its Km is 420 µM.

Question: With `OC[C@H]1NC[C@@H](O)[C@@H]1O` [AB1, 1,4-dideoxy-1,4-imino-D-arabinitol] as the molecule, how does the “inhibition of aphid myrosinase” value [4] read?
Answer: The value was “inhibited”.

Question: And the “inhibition of plant myrosinase” value [5]?
Answer: Its value is “not significantly”.

Question: Which “inhibition of aphid myrosinase” value [4] does the source give for `OC[C@@H]1[C@@H](O)[C@H](O)[C@@H]2[C@@H](O)CCN21` [Alexine] here?
Answer: Its value is “inhibited”.

Question: And the “inhibition of plant myrosinase” value [5]?
Answer: Its value is “not significantly”.

Question: With `O=C1O[C@H](CO)[C@@H](O)[C@H](O)[C@H]1O` [D-glucono-β-lactone] as the molecule, how does the “inhibition of plant myrosinase” value (plant myrosinase) read?
Answer: The value was “poor inhibitors”.

Question: What does the source list for `OC[C@H]1N[C@H](CO)[C@@H](O)[C@@H]1O` [DMDP, (2R, 5R)-dihydroxymethyl-(3R,4R)-dihydroxypyrrolidine]?
Answer: inhibition of aphid myrosinase [4]: effectively inhibited; inhibition of plant myrosinase [5]: effectively inhibited

Question: Which “inhibition of aphid myrosinase” value [4] does the source give for `OC[C@H]1NC[C@H](O)[C@@H](O)[C@@H]1O` [DNJ, 1-deoxynojirimycin] here?
Answer: The value was “inhibited”.

Question: What about the “inhibition of plant myrosinase” value [5] of the same molecule?
Answer: The value was “not significantly”.

Question: For `O=C1O[C@H]([C@@H](O)CO)C(O)=C1O` [ascorbate, ascorbic acid], which activation by ascorbate ([1]; concentration range 0.1-20 mM) is on record?
Answer: Its activation by ascorbate is “not activated”.

Question: And the activation by ascorbate [6]?
Answer: The activation by ascorbate was “not activated”.

Question: And the “inhibition of plant myrosinases” value (plant myrosinase; high concentrations)?
Answer: Its value is “inhibited”.

Question: And the “activation of plant myrosinases” value (plant myrosinase; low concentrations)?
Answer: The value was “activated”.

Question: Which Km [1] does the source give for `O=S(=O)(O)O/N=C(\Cc1ccccc1)S[C@@H]1O[C@H](CO)[C@@H](O)[C@H](O)[C@H]1O` [benzyl glucosinolate] here?
Answer: Its Km is 915 µM.

Question: What does the source list for `O[C@H]1[C@H](O)[C@@H](O)CN2CC[C@H](O)[C@H]12` [castanospermine]?
Answer: inhibition of aphid myrosinase [4]: effectively inhibited; inhibition of plant myrosinase [5]: effectively inhibited

B1: Pure aphid myrosinase: myrosinase enzyme purified to homogeneity from Brevicoryne brassicae (SEQ ID NO. 1) (protein, listed as Brevicoryne brassicae)
chain: T1 sequence (Q95X01 1-464)
Question: For B1, which Specific activity [7] is on record?
Answer: Its Specific activity is 20.000 µmol/mg/min.
